Measured values: patent US20050239841A1, “New compounds” (priority 2003, published 2005)
Structures can show the parent of a compound that is named as a salt.

Target: T1, human MCH1R receptor (Homo sapiens, UniProt Q99705)
T1 construct: host or cells: CHO-K1
Assay: MCH1R receptor binding by SPA ([125I]-MCH displacement)
Conditions: 0.2 nM [125I]-MCH, membranes of CHO-K1 cells expressing hMCH1 receptor, WGA SPA beads; Ki calculated from IC50
Procedure: The compounds according to the invention were evaluated for their binding to the human MCH1R receptor by the following method:
Compounds: MCH peptide was purchased from Phoenix pharmaceuticals. (Phe^13, [^125I]Tyr^19 Melanine-Concentrating Hormone (human, mouse, rat) ([^125I]-MCH) was obtained from NEN life Science Products. Inc. Boston, Mass. Wheat germ agglutinine SPA beads (RPNQ 0001) were obtained from Amersham-Pharmacia Biotech. All other reagents used are of highest purity from different resources available. Protein Kits, Micro BCA™ Protein Assay Reagent Kit (Cat No. 23235) were purchased from Piece, Rockford, Ill., USA.
CHO-K1 cells expressing hMCH1 receptor were purchased from Euroscreen.
CHO-K1 hMCHR1 (Euroscreen, Brussels, Belgium, # ES-370-C) were cultivated in Nutrient mixture Ham's F-12 with Glutamax I (Gibco-BRL #31765-027) supplemented with 10% heat-inactivated foetal calf serum (FCS, Gibco-BRL #10108-165) and 400 μg/ml geniticin (Gibco-BRL #1140-0359). The cells were sub-cultivated twice weekly with split ratio=1:20-1:30. For membrane preparation the cells were cultured in […] and the cells were harvested when 90% confluent.
When the cells reached more than 90% confluence, dishes (500 cm^2) were rinsed twice with 20 ml PBS (Ca^2+ and Mg^2+ free). Buffer A, which contains Tris.HCl (15), MgCl2.6H2O (2), EDTA (0.3), EGTA (1) in mM with pH 7.5, 25 ml was added and cells were suspended using a window scraper. The cells were collected in 50 ml Falcon tube pre-cooled on ice and then centrifuged for 3 minutes at 1500 g at 4° C. […]
The radio labeled [^125I]-MCH was diluted with cold MCH in ratio 1:3. […] The results were calculated using Excel program and the curves were drawn using a program GraphPad Prism.
For screening of the substances the amount of the beads used was 0.25 mg/well and the amount of the membrane protein was 4 μg/well 0.2 nM of labeled MCH was used. […] The samples were counted using Microbeta counter (Wallac Trilux 1450 Micro beta counter, Wallac, Finland) for 2 minutes and the results were calculated by using the computer program Activity Base. […]

T1 sequence (Q99705 whole entry): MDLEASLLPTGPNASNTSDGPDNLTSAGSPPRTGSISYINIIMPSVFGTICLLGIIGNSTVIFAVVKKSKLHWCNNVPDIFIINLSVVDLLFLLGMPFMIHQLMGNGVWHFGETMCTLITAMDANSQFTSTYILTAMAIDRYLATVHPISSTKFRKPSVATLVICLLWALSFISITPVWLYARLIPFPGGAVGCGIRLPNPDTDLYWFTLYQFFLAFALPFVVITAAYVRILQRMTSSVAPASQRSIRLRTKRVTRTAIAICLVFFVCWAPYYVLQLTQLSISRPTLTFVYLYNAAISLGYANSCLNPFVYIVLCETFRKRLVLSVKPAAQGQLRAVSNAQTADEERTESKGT

SMILES	Ki [µM]
COc1ccc([C@@]23CC[C@@H](NC(=O)Nc4ccc(OC(F)(F)F)cc4)C[C@@H]2N(C)CC3)cc1OC (relative stereo) [Example 70, N-[(3aS*,6R*,7aS*)-3a-(3,4-dimethoxyphenyl)-1-methyloctahydro-1H-indol-6-yl]-N′-[4-(trifluoromethoxy)phenyl]urea trifluoroacetate]	0.052
CCOc1ccc([C@@]23CC[C@@H](NC(=O)Nc4ccc(F)c(F)c4)C[C@@H]2N(C)CC3)cc1OCC (relative stereo) [Example 208, N-[(3aS*,6R*,7aS*)-3a-(3,4-diethoxyphenyl)-1-methyloctahydro-1H-indol-6-yl]-N′-(3,4-difluoro]henyl)urea trifluoroacetate]	0.258
C=CCN(C(=O)Nc1ccc(Cl)c(C(F)(F)F)c1)C1CCC2(c3ccc(OC)c(OC)c3)CCN(C)C2C1 (stereo not drawn) [Example 159, N-ally-N′-[4-chloro-3-(trifluoromethyl)phenyl]-N-[(3aS*,6R*,7aS*)-3a-(3,4-dimethoxyphenyl)-1-methyloctahydro-1H-indol-6-yl]urea]	0.075
